Assay results: PubChem BioAssay (NCI)
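Cultured in 96-well plates, cells were exposed to test compound for 48 hours across five concentrations. At the TGI there is no net growth.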

Columns and labels:
Experiment in all cases: inhibition of tumour cell growth, NCI panel, 48 h
NCI-H23 lung = tested on: NCI-H23 lung
OVCAR-5 ovarian = tested on: OVCAR-5 ovarian
SN12C renal = tested on: SN12C renal
A549 NSCLC = tested on: A549 NSCLC
DU-145 prostate = tested on: DU-145 prostate
UACC-257 melanoma = tested on: UACC-257 melanoma
CCRF-CEM leukemia = tested on: CCRF-CEM leukemia
MCF7 breast = tested on: MCF7 breast
SW-620 colon = tested on: SW-620 colon
M14 melanoma = tested on: M14 melanoma
PC-3 prostate = tested on: PC-3 prostate
U251 CNS = tested on: U251 CNS
MDA-MB-231 breast = tested on: MDA-MB-231 breast
MOLT-4 leukemia = tested on: MOLT-4 leukemia
HOP-62 NSCLC = tested on: HOP-62 NSCLC
MDA-MB-435 = tested on: MDA-MB-435
NCI-H522 lung = tested on: NCI-H522 lung
SK-MEL-5 melanoma = tested on: SK-MEL-5 melanoma
TK-10 renal = tested on: TK-10 renal
A498 renal = tested on: A498 renal
IGROV1 ovarian = tested on: IGROV1 ovarian
NCI/ADR-RES ovarian = tested on: NCI/ADR-RES ovarian
SF-295 CNS = tested on: SF-295 CNS
HCC-2998 colon = tested on: HCC-2998 colon
SR leukemia = tested on: SR leukemia
HCT-15 colon = tested on: HCT-15 colon
SF-268 CNS = tested on: SF-268 CNS
SNB-19 CNS = tested on: SNB-19 CNS
MDA-N = tested on: MDA-N
T-47D breast = tested on: T-47D breast
HS 578T breast = tested on: HS 578T breast
MALME-3M melanoma = tested on: MALME-3M melanoma
HOP-92 NSCLC = tested on: HOP-92 NSCLC
OVCAR-3 ovarian = tested on: OVCAR-3 ovarian
SNB-75 CNS = tested on: SNB-75 CNS
BT-549 breast = tested on: BT-549 breast
COLO 205 colon = tested on: COLO 205 colon
CAKI-1 renal = tested on: CAKI-1 renal
NCI-H460 lung = tested on: NCI-H460 lung
KM12 colon = tested on: KM12 colon
NCI-H226 lung = tested on: NCI-H226 lung
HT29 colon = tested on: HT29 colon
SK-MEL-28 melanoma = tested on: SK-MEL-28 melanoma
SF-539 CNS = tested on: SF-539 CNS
HCT-116 colon = tested on: HCT-116 colon
UACC-62 melanoma = tested on: UACC-62 melanoma
UO-31 renal = tested on: UO-31 renal
SK-OV-3 ovarian = tested on: SK-OV-3 ovarian
K-562 leukemia = tested on: K-562 leukemia
OVCAR-4 ovarian = tested on: OVCAR-4 ovarian
RXF 393 renal = tested on: RXF 393 renal
ACHN renal = tested on: ACHN renal
OVCAR-8 ovarian = tested on: OVCAR-8 ovarian
HL-60(TB) leukemia = tested on: HL-60(TB) leukemia
EKVX NSCLC = tested on: EKVX NSCLC
LOX IMVI melanoma = tested on: LOX IMVI melanoma
RPMI-8226 leukemia = tested on: RPMI-8226 leukemia
786-0 renal = tested on: 786-0 renal

Compound: Cn1c(=O)c(-c2ccccc2)c(N=[N+]=[N-])c2ccccc21
- TGI (NCI-H23 lung): > 100 µM
- TGI (OVCAR-5 ovarian): > 100 µM
- TGI (SN12C renal): > 100 µM
- TGI (A549 NSCLC): > 100 µM
- TGI (DU-145 prostate): > 100 µM
- TGI (UACC-257 melanoma): > 100 µM
- TGI (CCRF-CEM leukemia): > 100 µM
- TGI (MCF7 breast): > 100 µM
- TGI (SW-620 colon): > 100 µM
- TGI (M14 melanoma): > 100 µM
- TGI (PC-3 prostate): > 100 µM
- TGI (U251 CNS): > 100 µM
- TGI (MDA-MB-231 breast): > 100 µM
- TGI (MOLT-4 leukemia): 85.4 µM
- TGI (HOP-62 NSCLC): > 100 µM
- TGI (MDA-MB-435): > 100 µM
- TGI (NCI-H522 lung): 75.5 µM
- TGI (SK-MEL-5 melanoma): > 100 µM
- TGI (TK-10 renal): > 100 µM
- TGI (A498 renal): > 100 µM
- TGI (IGROV1 ovarian): > 100 µM
- TGI (NCI/ADR-RES ovarian): > 100 µM
- TGI (SF-295 CNS): > 100 µM
- TGI (HCC-2998 colon): 47 µM
- TGI (SR leukemia): 75.4 µM
- TGI (HCT-15 colon): > 100 µM
- TGI (SF-268 CNS): > 100 µM
- TGI (SNB-19 CNS): > 100 µM
- TGI (MDA-N): > 100 µM
- TGI (T-47D breast): > 100 µM
- TGI (HS 578T breast): > 100 µM
- TGI (MALME-3M melanoma): 87.8 µM
- TGI (HOP-92 NSCLC): > 100 µM
- TGI (OVCAR-3 ovarian): > 100 µM
- TGI (SNB-75 CNS): > 100 µM
- TGI (BT-549 breast): > 100 µM
- TGI (COLO 205 colon): > 100 µM
- TGI (CAKI-1 renal): > 100 µM
- TGI (NCI-H460 lung): > 100 µM
- TGI (KM12 colon): > 100 µM
- TGI (NCI-H226 lung): > 100 µM
- TGI (HT29 colon): 49.9 µM
- TGI (SK-MEL-28 melanoma): > 100 µM
- TGI (SF-539 CNS): > 100 µM
- TGI (HCT-116 colon): > 100 µM
- TGI (UACC-62 melanoma): > 100 µM
- TGI (UO-31 renal): > 100 µM
- TGI (SK-OV-3 ovarian): > 100 µM
- TGI (K-562 leukemia): > 100 µM
- TGI (OVCAR-4 ovarian): > 100 µM
- TGI (RXF 393 renal): > 100 µM
- TGI (ACHN renal): 96.3 µM
- TGI (OVCAR-8 ovarian): > 100 µM

Compound: COC(=O)C(Cc1c[nH]c2ccccc12)NP(=O)(O)OCC1OC(n2cc(I)c(=O)[nH]c2=O)CC1O (centres undefined)
- TGI (NCI-H23 lung): > 100 µM
- TGI (OVCAR-5 ovarian): > 100 µM
- TGI (SN12C renal): > 100 µM
- TGI (A549 NSCLC): > 100 µM
- TGI (HL-60(TB) leukemia): > 100 µM
- TGI (DU-145 prostate): > 100 µM
- TGI (EKVX NSCLC): > 100 µM
- TGI (UACC-257 melanoma): > 100 µM
- TGI (CCRF-CEM leukemia): > 100 µM
- TGI (MCF7 breast): > 100 µM
- TGI (LOX IMVI melanoma): > 100 µM
- TGI (SW-620 colon): > 100 µM
- TGI (M14 melanoma): > 100 µM
- TGI (PC-3 prostate): > 100 µM
- TGI (U251 CNS): > 100 µM
- TGI (MDA-MB-231 breast): > 100 µM
- TGI (MOLT-4 leukemia): > 100 µM
- TGI (HOP-62 NSCLC): > 100 µM
- TGI (MDA-MB-435): > 100 µM
- TGI (NCI-H522 lung): > 100 µM
- TGI (SK-MEL-5 melanoma): > 100 µM
- TGI (TK-10 renal): > 100 µM
- TGI (A498 renal): > 100 µM
- TGI (IGROV1 ovarian): > 100 µM
- TGI (NCI/ADR-RES ovarian): > 100 µM
- TGI (SF-295 CNS): > 100 µM
- TGI (SR leukemia): > 100 µM
- TGI (HCT-15 colon): > 100 µM
- TGI (SF-268 CNS): > 100 µM
- TGI (SNB-19 CNS): > 100 µM
- TGI (MDA-N): > 100 µM
- TGI (T-47D breast): > 100 µM
- TGI (HS 578T breast): > 100 µM
- TGI (MALME-3M melanoma): > 100 µM
- TGI (HOP-92 NSCLC): > 100 µM
- TGI (OVCAR-3 ovarian): > 100 µM
- TGI (SNB-75 CNS): > 100 µM
- TGI (BT-549 breast): > 100 µM
- TGI (COLO 205 colon): > 100 µM
- TGI (CAKI-1 renal): > 100 µM
- TGI (NCI-H460 lung): > 100 µM
- TGI (KM12 colon): > 100 µM
- TGI (NCI-H226 lung): > 100 µM
- TGI (HT29 colon): > 100 µM
- TGI (SK-MEL-28 melanoma): > 100 µM
- TGI (SF-539 CNS): > 100 µM
- TGI (HCT-116 colon): > 100 µM
- TGI (RPMI-8226 leukemia): > 100 µM
- TGI (UACC-62 melanoma): > 100 µM
- TGI (UO-31 renal): > 100 µM
- TGI (SK-OV-3 ovarian): > 100 µM
- TGI (K-562 leukemia): > 100 µM
- TGI (786-0 renal): > 100 µM
- TGI (OVCAR-4 ovarian): > 100 µM
- TGI (ACHN renal): > 100 µM
- TGI (OVCAR-8 ovarian): > 100 µM
